Test results published in PubChem BioAssay (NCI).
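Cultured in 96-well plates, cells were exposed to test compound for 48 hours across five concentrations. GI50 is the concentration that inhibits growth by half. Definition used: TGI = concentration required for complete inhibition of growth.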

Assays:
Assay in all cases: inhibition of tumour cell growth, NCI panel, 48 h
SN12C renal = tested on: SN12C renal
HCT-116 colon = tested on: HCT-116 colon
NCI/ADR-RES ovarian = tested on: NCI/ADR-RES ovarian
HS 578T breast = tested on: HS 578T breast
EKVX NSCLC = tested on: EKVX NSCLC
RXF 393 renal = tested on: RXF 393 renal
OVCAR-3 ovarian = tested on: OVCAR-3 ovarian
HT29 colon = tested on: HT29 colon
CCRF-CEM leukemia = tested on: CCRF-CEM leukemia
HOP-62 NSCLC = tested on: HOP-62 NSCLC

Cc1ccc(S[C@@H](C)[C@@](O)(C(N)=O)c2ccccc2)cc1
TGI (SN12C renal): > 100 µM | TGI (HCT-116 colon): > 100 µM | TGI (NCI/ADR-RES ovarian): 49.5 µM | TGI (HS 578T breast): > 100 µM | TGI (EKVX NSCLC): > 100 µM | TGI (RXF 393 renal): > 100 µM | TGI (OVCAR-3 ovarian): > 100 µM | TGI (HT29 colon): > 100 µM | TGI (CCRF-CEM leukemia): 26.2 µM | TGI (HOP-62 NSCLC): 62.6 µM

Cc1ccc2c(c1C)C(=O)/C(=C/c1cccc(C)c1C(=O)O)C2
TGI (SN12C renal): > 100 µM | TGI (HCT-116 colon): > 100 µM | TGI (NCI/ADR-RES ovarian): > 100 µM | TGI (HS 578T breast): > 100 µM | TGI (EKVX NSCLC): > 100 µM | TGI (RXF 393 renal): > 100 µM | TGI (OVCAR-3 ovarian): > 100 µM | TGI (HT29 colon): > 100 µM | TGI (CCRF-CEM leukemia): > 100 µM | TGI (HOP-62 NSCLC): > 100 µM

COc1cc2c3c(cc(Cl)nc3c1OC)C(O)(CC(=O)c1ccccc1)C(=O)N2 (stereo not drawn)
TGI (SN12C renal): 19.3 µM | TGI (HCT-116 colon): 16.2 µM | TGI (NCI/ADR-RES ovarian): 63.8 µM | TGI (HS 578T breast): 73.4 µM | TGI (EKVX NSCLC): 10.4 µM | TGI (RXF 393 renal): 27.4 µM | TGI (OVCAR-3 ovarian): 30.2 µM | TGI (HT29 colon): 44.7 µM | TGI (CCRF-CEM leukemia): 12.5 µM | TGI (HOP-62 NSCLC): 36 µM

O=C(NCCCCCN1CCC2(CCCCC2)CC1)C(C1CCCCC1)C1CCCCC1
TGI (SN12C renal): 9.67 µM | TGI (HCT-116 colon): 8.85 µM | TGI (NCI/ADR-RES ovarian): 14.9 µM | TGI (HS 578T breast): 9.59 µM | TGI (EKVX NSCLC): 9.66 µM | TGI (RXF 393 renal): 8.92 µM | TGI (OVCAR-3 ovarian): 8.97 µM | TGI (HT29 colon): 4.62 µM | TGI (CCRF-CEM leukemia): 11.9 µM | TGI (HOP-62 NSCLC): 4.07 µM

O=C1C(c2c(O)[nH]c3ccc(S(=O)(=O)NCCO)cc23)=Nc2ccccc21
TGI (SN12C renal): > 100 µM | TGI (HCT-116 colon): 16.2 µM | TGI (NCI/ADR-RES ovarian): > 100 µM | TGI (HS 578T breast): > 100 µM | TGI (EKVX NSCLC): > 100 µM | TGI (RXF 393 renal): 18.9 µM | TGI (OVCAR-3 ovarian): 18.3 µM | TGI (HT29 colon): > 100 µM | TGI (CCRF-CEM leukemia): > 100 µM | TGI (HOP-62 NSCLC): > 100 µM

Cc1ccc(NC(=O)CC(=O)n2nc(C)c(N=Nc3cccc(C)c3)c2C)cc1
TGI (SN12C renal): > 100 µM | TGI (HCT-116 colon): > 100 µM | TGI (NCI/ADR-RES ovarian): > 100 µM | TGI (HS 578T breast): > 100 µM | TGI (EKVX NSCLC): > 100 µM | TGI (RXF 393 renal): > 100 µM | TGI (OVCAR-3 ovarian): > 100 µM | TGI (HT29 colon): > 100 µM | TGI (CCRF-CEM leukemia): > 100 µM | TGI (HOP-62 NSCLC): > 100 µM

CCOc1cc2c(cc1O)C(N)C[C@@H]1[C@@H]2CC[C@]2(C)[C@@H](O)CC[C@@H]12 (stereo partly drawn)
GI50 (SN12C renal): 58.6 µM | TGI (SN12C renal): > 100 µM | GI50 (HCT-116 colon): 39.7 µM | TGI (HCT-116 colon): > 100 µM | TGI (NCI/ADR-RES ovarian): > 100 µM | TGI (HS 578T breast): > 100 µM | TGI (EKVX NSCLC): > 100 µM | TGI (RXF 393 renal): > 100 µM | GI50 (OVCAR-3 ovarian): 44.9 µM | TGI (OVCAR-3 ovarian): > 100 µM | TGI (HT29 colon): > 100 µM | TGI (CCRF-CEM leukemia): 71.6 µM | TGI (HOP-62 NSCLC): > 100 µM

C=C1C(=O)OC2C3OC(C)(CCC(O)C3COC(C)=O)CC(OC(=O)/C(=C/C)COC(C)=O)C12 (stereo not drawn)
TGI (SN12C renal): 1.98 µM | TGI (HCT-116 colon): 0.216 µM | TGI (NCI/ADR-RES ovarian): 11 µM | TGI (HS 578T breast): 31.3 µM | TGI (EKVX NSCLC): 1.61 µM | TGI (RXF 393 renal): 0.515 µM | TGI (OVCAR-3 ovarian): 0.983 µM | TGI (HT29 colon): 0.521 µM | TGI (CCRF-CEM leukemia): 0.269 µM | TGI (HOP-62 NSCLC): 10.1 µM

Nc1cc2c3c(cccc3c1)C(=O)N(c1ccc(OCCN3CCCC3)cc1)C2=O
TGI (SN12C renal): > 66.7 µM | TGI (HCT-116 colon): 40.9 µM | TGI (NCI/ADR-RES ovarian): > 57 µM | TGI (HS 578T breast): 55.7 µM | TGI (EKVX NSCLC): 46.1 µM | TGI (RXF 393 renal): 32.2 µM | TGI (OVCAR-3 ovarian): 29.7 µM | TGI (HT29 colon): 29.8 µM | TGI (CCRF-CEM leukemia): 69 µM | TGI (HOP-62 NSCLC): 29.7 µM

Clc1cc2nnn(C3CCCO3)c2cc1Cl (stereo not drawn)
TGI (SN12C renal): > 100 µM | TGI (HCT-116 colon): > 100 µM | TGI (NCI/ADR-RES ovarian): > 100 µM | TGI (HS 578T breast): > 100 µM | TGI (EKVX NSCLC): > 100 µM | TGI (RXF 393 renal): > 100 µM | TGI (OVCAR-3 ovarian): > 100 µM | TGI (HT29 colon): > 100 µM | TGI (CCRF-CEM leukemia): > 100 µM | TGI (HOP-62 NSCLC): > 100 µM

Cc1ccc(/C=C2\N=C(N3CCCC(CO)C3)NC2=O)cc1 (stereo not drawn)
TGI (SN12C renal): > 100 µM | TGI (HCT-116 colon): > 100 µM | TGI (NCI/ADR-RES ovarian): > 100 µM | TGI (HS 578T breast): > 100 µM | TGI (EKVX NSCLC): > 100 µM | TGI (RXF 393 renal): > 100 µM | TGI (OVCAR-3 ovarian): > 100 µM | TGI (HT29 colon): > 100 µM | TGI (CCRF-CEM leukemia): > 100 µM | TGI (HOP-62 NSCLC): > 100 µM

O=S(=O)(O)c1cc(S(=O)(=O)O)c2c(N=Nc3ccc(N=Nc4ccccc4)cc3)c(O)ccc2c1
TGI (SN12C renal): > 100 µM | TGI (HCT-116 colon): > 100 µM | TGI (NCI/ADR-RES ovarian): > 100 µM | TGI (HS 578T breast): > 100 µM | TGI (EKVX NSCLC): > 100 µM | TGI (RXF 393 renal): > 100 µM | TGI (OVCAR-3 ovarian): > 100 µM | TGI (HT29 colon): > 100 µM | TGI (CCRF-CEM leukemia): > 100 µM | TGI (HOP-62 NSCLC): > 100 µM

O=[N+]([O-])/C(C(Cl)=C(Cl)Cl)=C(/Nc1ccccc1)Sc1ccccc1
TGI (SN12C renal): 97.5 µM | TGI (HCT-116 colon): 38.4 µM | TGI (NCI/ADR-RES ovarian): 78.9 µM | TGI (HS 578T breast): > 100 µM | TGI (EKVX NSCLC): 38 µM | TGI (RXF 393 renal): 40.3 µM | TGI (OVCAR-3 ovarian): 30.1 µM | TGI (HT29 colon): 48.7 µM | TGI (CCRF-CEM leukemia): 36.6 µM | TGI (HOP-62 NSCLC): 62 µM

COc1ccc(CNc2nc3ccccc3nc2C(=O)O)cc1
TGI (SN12C renal): > 100 µM | TGI (HCT-116 colon): > 100 µM | TGI (NCI/ADR-RES ovarian): > 100 µM | TGI (HS 578T breast): > 100 µM | TGI (EKVX NSCLC): > 100 µM | TGI (RXF 393 renal): > 100 µM | TGI (OVCAR-3 ovarian): > 100 µM | TGI (HT29 colon): > 100 µM | TGI (CCRF-CEM leukemia): > 100 µM | TGI (HOP-62 NSCLC): > 100 µM

O=C(Nc1ccc(Cl)cc1)c1cc(S(=O)(=O)Nc2n[nH]c(=O)n2-c2ccccc2)c(S)cc1Cl
TGI (SN12C renal): > 100 µM | TGI (HCT-116 colon): > 100 µM | TGI (NCI/ADR-RES ovarian): > 100 µM | TGI (HS 578T breast): > 100 µM | TGI (EKVX NSCLC): > 100 µM | TGI (RXF 393 renal): > 100 µM | TGI (OVCAR-3 ovarian): > 100 µM | TGI (HT29 colon): > 100 µM | TGI (CCRF-CEM leukemia): > 100 µM | TGI (HOP-62 NSCLC): > 100 µM

CCCCCCCCCCCCO[P+](=O)OCCCCCCCCCCCC
TGI (SN12C renal): > 100 µM | TGI (HCT-116 colon): > 100 µM | TGI (NCI/ADR-RES ovarian): > 100 µM | TGI (HS 578T breast): > 100 µM | TGI (EKVX NSCLC): > 100 µM | TGI (RXF 393 renal): > 100 µM | TGI (OVCAR-3 ovarian): > 100 µM | TGI (HT29 colon): > 100 µM | TGI (CCRF-CEM leukemia): > 100 µM | TGI (HOP-62 NSCLC): > 100 µM

CCCCCCCCCCCCOP(=O)(O)OP(=O)(O)OCC1OC(n2cc(C)c(=O)[nH]c2=O)CC1O (stereo not drawn)
TGI (SN12C renal): > 100 µM | TGI (HCT-116 colon): > 100 µM | TGI (NCI/ADR-RES ovarian): > 100 µM | TGI (HS 578T breast): > 100 µM | TGI (EKVX NSCLC): > 100 µM | TGI (RXF 393 renal): > 100 µM | TGI (OVCAR-3 ovarian): > 100 µM | TGI (HT29 colon): > 100 µM | TGI (CCRF-CEM leukemia): > 100 µM | TGI (HOP-62 NSCLC): > 100 µM

COc1ccc(C2=NC(c3ccc(Cl)cc3)C(c3ccc(Cl)cc3)N2C(=O)N2CCNC(=O)C2)c(OC(C)C)c1 (stereo not drawn)
GI50 (SN12C renal): 1.94 µM | TGI (SN12C renal): 3.49 µM | GI50 (HCT-116 colon): 1.81 µM | TGI (HCT-116 colon): 3.2 µM | GI50 (NCI/ADR-RES ovarian): 1.92 µM | TGI (NCI/ADR-RES ovarian): 3.83 µM | GI50 (HS 578T breast): 2.65 µM | TGI (HS 578T breast): 6.45 µM | GI50 (EKVX NSCLC): 2.08 µM | TGI (EKVX NSCLC): 4.18 µM | GI50 (RXF 393 renal): 3.6 µM | TGI (RXF 393 renal): 6.84 µM | GI50 (OVCAR-3 ovarian): 1.71 µM | TGI (OVCAR-3 ovarian): 3.13 µM | GI50 (HT29 colon): 3.27 µM | TGI (HT29 colon): > 10 µM | GI50 (CCRF-CEM leukemia): 3.85 µM | TGI (CCRF-CEM leukemia): > 10 µM | GI50 (HOP-62 NSCLC): 1.9 µM | TGI (HOP-62 NSCLC): 3.38 µM
